According to patent publication US10144706B2 (BRISTOL-MYERS SQUIBB COMPANY, priority 2016, dated 2018):
pIC50: −log10 of the molar value. Counter-ions that a name gives are not always drawn. Like-named read-outs stand apart in the source and are kept apart here.

Target: T1, PD-1/PD-L1 interaction (PD-1-Ig / PD-L1-His) (Homo sapiens, UniProt Q9NZQ7)
T1 construct: hPDL1(18-239)-TVMV-His; TVMV protease site linker (C); made in house; host or cells: HEK293T
Experiment: PD-1/PD-L1 Homogenous Time-Resolved Fluorescence (HTRF) binding assay
Settings: PD-L1-His 10 nM, PD-1-Ig 20 nM, read-out: Range or IC50
Procedure, shortened: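 HTRF detection used 1 nM europium-cryptate anti-Ig and 20 nM APC anti-His. Compounds first saw 10 nM PD-L1-His for 15 min, and 20 nM PD-1-Ig was then added for another 15 min. Buffer was dPBS plus 0.1% BSA and 0.05% Tween-20. All concentrations are final.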

T1 sequence (Q9NZQ7 with tags, fused parts or gaps): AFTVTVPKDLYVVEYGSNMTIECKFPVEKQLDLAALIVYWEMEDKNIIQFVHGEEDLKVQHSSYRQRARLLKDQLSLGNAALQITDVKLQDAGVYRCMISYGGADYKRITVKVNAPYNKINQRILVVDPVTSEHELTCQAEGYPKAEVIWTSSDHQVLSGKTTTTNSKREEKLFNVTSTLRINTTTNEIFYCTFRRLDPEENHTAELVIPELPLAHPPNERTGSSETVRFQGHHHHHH

SMILES | pIC50 (IC50 range class) | pIC50 (numeric IC50)
Cc1c(COc2cc(OCc3cncc(C#N)c3)c(CN[C@H](C(=O)O)C(C)(C)O)cc2Cl)cccc1-c1cccc(COc2cc(OCc3cncc(C#N)c3)c(CN[C@H](C(=O)O)C(C)(C)O)cc2Cl)c1C [Example 40090] | 7.70 to 10.40 | –
Cc1c(OCCCN2CC[C@@H](O)C2)cccc1-c1cccc(OCCCN2CC[C@@H](O)C2)c1C(F)(F)F [Example 3026, (3R,3′R)-1,1′-(((2-methyl-2′-(trifluoromethyl)-[1,1′-biphenyl]-3,3′-diyl)bis(oxy))bis(propane-3,1-diyl))bis(pyrrolidin-3-ol), 2 TFA] | 6.00 to 7.05 | –
N#Cc1cncc(COc2cc(OCc3cccc(-c4cccc(COc5cc(OCc6cncc(C#N)c6)c(C(=O)NCCCO)cc5Cl)c4Cl)c3Cl)c(Cl)cc2C(=O)O)c1 [Example 90030] | 7.05 to 7.70 | –
CC(=O)c1cc(Cl)c(OCc2cccc(-c3cccc(COc4cc(OCc5cncc(C#N)c5)c(CN[C@H](C(=O)O)[C@@H](C)[C@H](C)O)cc4Cl)c3C)c2C)cc1OCc1cncc(C#N)c1 [Example 60050] | 7.70 to 10.40 | –
Cc1c(OCCCN2CC[C@@H](O)C2)cccc1-c1cccc(S(=O)(=O)NCCN2CC[C@@H](O)C2)c1C [Example 3016, N-(2-((R)-3-hydroxypyrrolidin-1-yl)ethyl)-3′-(3-((R)-3-hydroxypyrrolidin-1-yl)propoxy)-2,2′-dimethyl-[1,1′-biphenyl]-3-sulfonamide] | < 5.00 | –
Cc1c(COc2cc(OCc3cncc(C#N)c3)c(CN[C@H](C(=O)O)c3ccccc3)cc2Cl)cccc1-c1cccc(COc2cc(OCc3cncc(C#N)c3)c(CN[C@H](C(=O)O)c3ccccc3)cc2Cl)c1C [Example 40360] | 7.70 to 10.40 | –
Cc1c(COc2cc(OCc3cncc(C#N)c3)c(CO)cc2Cl)cccc1-c1cccc(COc2cc(OCc3cncc(C#N)c3)c(CNC(C(=O)O)C(=O)O)cc2Cl)c1C [Example 50270] | – | 7.64
Cc1c(COc2cc(OCc3cncc(C#N)c3)c(CO)cc2Cl)cccc1-c1cccc(COc2cc(OCc3cncc(C#N)c3)c(CN3CCOC[C@@H]3C(=O)O)cc2Cl)c1C [Example 50100] | 7.70 to 10.40 | –
Cc1c(COc2cc(OCc3cncc(C#N)c3)c(CN(CC3CC3)C(CCO)C(=O)O)cc2Cl)cccc1-c1cccc(COc2cc(OCc3cncc(C#N)c3)c(CN(CC3CC3)C(CCO)C(=O)O)cc2Cl)c1C (stereo not drawn) [Example 40830] | 7.70 to 10.40 | –
Cc1c(COc2cc(OCc3ccc(-n4cccn4)nc3)c(CN(C)[C@@H](CCO)C(=O)O)cc2Cl)cccc1-c1cccc(COc2cc(OCc3ccc(-n4cccn4)nc3)c(CN(C)[C@@H](CCO)C(=O)O)cc2Cl)c1C [Example 5025, (2S,2′S)-2,2′-((((((2,2′-dimethyl-[1,1′-biphenyl]-3,3′-diyl)bis(methylene))bis(oxy))bis(2-((6-(1H-pyrazol-1-yl)pyridin-3-yl)methoxy)-5-chloro-4,1-phenylene))bis(methylene))bis(methylazanediyl))bis(4-hydroxybutanoic acid)] | 7.70 to 10.40 | –
Cc1c(COc2cc(OCc3cc(F)cc(F)c3)c(CNC(C)(CO)CO)cc2Cl)cccc1-c1cccc(COc2cc(OCc3cc(F)cc(F)c3)c(CNC(C)(CO)CO)cc2Cl)c1C [Example 5007, 2,2′-((((((2,2′-dimethyl-[1,1′-biphenyl]-3,3′-diyl)bis(methylene))bis(oxy))bis(5-chloro-2-((3,5-difluorobenzyl)oxy)-4,1-phenylene))bis(methylene))bis(azanediyl))bis(2-methylpropane-1,3-diol)] | 7.70 to 10.40 | –
CCCN(Cc1cc(Cl)c(OCc2cccc(-c3cccc(COc4cc(OCc5cncc(C#N)c5)c(CN(CCC)C(CCO)C(=O)O)cc4Cl)c3C)c2C)cc1OCc1cncc(C#N)c1)C(CCO)C(=O)O (stereo not drawn) [Example 40820] | 7.70 to 10.40 | –
Cc1c(OCCCN2CC[C@@H](O)C2)cccc1-c1cccc(C(=O)NCCCN2CC[C@@H](O)C2)c1C [Example 3009, 3′-(3-((R)-3-hydroxypyrrolidin-1-yl)propoxy)-N-(3-((R)-3-hydroxypyrrolidin-1-yl)propyl)-2,2′-dimethyl-[1,1′-biphenyl]-3-carboxamide] | 5.00 to 6.00 | –
NCCCOc1cccc(-c2cccc(OCCCN)c2Cl)c1Cl [Example 2134, 3,3′-((2,2′-dichloro-[1,1′-biphenyl]-3,3′-diyl)bis(oxy))bis(propan-1-amine)] | 6.00 to 7.05 | –
Cc1c(OCCCCN2CC[C@@H](O)C2)cccc1-c1cccc(OCCCN2CC[C@@H](O)C2)c1C [Example 3002, (R)-1-(3-((3′-(4-((R)-3-hydroxypyrrolidin-1-yl)butoxy)-2,2′-dimethyl-[1,1′-biphenyl]-3-yl)oxy)propyl) pyrrolidin-3-ol] | 7.70 to 10.40 | –
Cc1c(COc2cc(OCc3cc(F)cc(F)c3)c(CN3CCCC[C@H]3C(=O)O)cc2Cl)cccc1-c1cccc(COc2cc(OCc3cc(F)cc(F)c3)c(CN3CCCC[C@H]3C(=O)O)cc2Cl)c1C [Example 5006, (2S,2′S)-1,1′-(((((2,2′-dimethyl-[1,1′-biphenyl]-3,3′-diyl)bis(methylene))bis(oxy))bis(5-chloro-2-((3,5-difluorobenzyl)oxy)-4,1-phenylene))bis(methylene))bis(piperidine-2-carboxylic acid)] | 7.70 to 10.40 | –
N#Cc1cncc(COc2cc(OCc3cccc(-c4cccc(COc5cc(OCc6cncc(C#N)c6)c(C(=O)N6CCC(=O)CC6)cc5Cl)c4Cl)c3Cl)c(Cl)cc2C(=O)N2CCC(=O)CC2)c1 [Example 80010] | 7.05 to 7.70 | –
Cc1ccn(CCNCCCOc2cccc(-c3cccc(OCCCN4CC[C@@H](O)C4)c3C)c2C)n1 [Example 2009, (R)-1-(3-((2,2′-dimethyl-3′-(3-((2-(3-methyl-1H-pyrazol-1-yl)ethyl)amino)propoxy)-[1,1′-biphenyl]-3-yl)oxy)propyl)pyrrolidin-3-ol] | 7.05 to 7.70 | –
Cc1c(COc2cc(OCc3cncc(C#N)c3)c(CO)cc2Cl)cccc1-c1cccc(COc2cc(OCc3cncc(C#N)c3)c(CN3CCCC[C@H]3C(=O)O)cc2Cl)c1C [Example 2120, (S)-1-(5-chloro-4-((3′-((2-chloro-5-((5-cyanopyridin-3-yl)methoxy)-4-(hydroxymethyl)phenoxy)methyl)-2,2′-dimethyl-[1,1′-biphenyl]-3-yl)methoxy)-2-((5-cyanopyridin-3-yl)methoxy)benzyl)piperidine-2-carboxylic acid] | 7.70 to 10.40 | –
Cc1c(OCCCNC[C@@H](O)c2ccc(F)c(Cl)c2)cccc1-c1cccc(OCCCN2CC[C@@H](O)C2)c1C [Example 2075, (R)-1-(3-((3′-(3-(((S)-2-(3-chloro-4-fluorophenyl)-2-hydroxyethyl)amino)propoxy)-2,2′-dimethyl-[1,1′-biphenyl]-3-yl)oxy)propyl)pyrrolidin-3-ol] | 7.05 to 7.70 | –
Cc1c(OCCCNC2C[C@H](CO)[C@@H](O)[C@H]2O)cccc1-c1cccc(OCCCN[C@@H]2C[C@H](CO)[C@@H](O)[C@H]2O)c1C (stereo partly drawn) [Example 2132, (1R,2S,5R)-3-((3-((3′-(3-(((1R,2S,3R,4R)-2,3-dihydroxy-4-(hydroxymethyl)cyclopentyl)amino)propoxy)-2,2′-dimethyl-[1,1′-biphenyl]-3-yl)oxy)propyl)amino)-5-(hydroxymethyl)cyclopentane-1,2-diol] | 7.70 to 10.40 | –
N#Cc1cncc(COc2cc(OCc3cccc(-c4cccc(COc5cc(OCc6cncc(C#N)c6)c(C(=O)N6CCC(O)CC6)cc5Cl)c4Cl)c3Cl)c(Cl)cc2C(=O)N2CCC(O)CC2)c1 [Example 80060] | 7.70 to 10.40 | –
COc1cc(OCc2cccc(-c3cccc(COc4cc(OC)c(CNCc5cncnc5)cc4Cl)c3C)c2C)c(Cl)cc1CNCc1cncnc1 [Example 5033, 1,1′-((((2,2′-dimethyl-[1,1′-biphenyl]-3,3′-diyl)bis(methylene))bis(oxy))bis(5-chloro-2-methoxy-4,1-phenylene))bis(N-(pyrimidin-5-ylmethyl)methanamine)] | 7.70 to 10.40 | –
Cc1c(OCCCN2CC[C@@H](O)C2)cccc1-c1cccc(OCC2CCCN(C)C2)c1C (stereo partly drawn) [Example 3029, (3R)-1-(3-((2,2′-dimethyl-3′-((1-methylpiperidin-3-yl)methoxy)-[1,1′-biphenyl]-3-yl)oxy)propyl)pyrrolidin-3-ol] | 7.70 to 10.40 | –
CC(=O)c1cc(Cl)c(OCc2cccc(-c3cccc(COc4cc(OCc5cncc(C#N)c5)c(CN[C@](C)(CO)C(=O)O)cc4Cl)c3C)c2C)cc1OCc1cncc(C#N)c1 [Example 60010] | 7.70 to 10.40 | –
Cc1c(OCCCN2CC[C@@H](O)C2)cccc1-c1ccc(OCCCN2CC[C@H](O)C2)c(OCCCN2CC[C@H](O)C2)c1 [Example 3022, (3S,3′S)-1,1′-(((3′-(3-((R)-3-hydroxypyrrolidin-1-yl)propoxy)-2′-methyl-[1,1′-biphenyl]-3,4-diyl)bis(oxy))bis(propane-3,1-diyl))bis(pyrrolidin-3-ol)] | < 5.00 | –
Cc1c(OCCCN2CCC(N(C)C)CC2)cccc1-c1cccc(OCCCN2CC[C@@H](O)C2)c1C [Example 2070, (R)-1-(3-((3′-(3-(4-(dimethylamino)piperidin-1-yl)propoxy)-2,2′-dimethyl-[1,1′-biphenyl]-3-yl)oxy)propyl)pyrrolidin-3-ol] | 6.00 to 7.05 | –
COc1cc(OCc2cccc(-c3cccc(COc4cc(OC)c(CN[C@@H](CCO)C(=O)O)cc4Cl)c3C)c2C)c(Cl)cc1CN[C@@H](CCO)C(=O)O [Example 5036, (2S,2′S)-2,2′-((((((2,2′-dimethyl-[1,1′-biphenyl]-3,3′-diyl)bis(methylene))bis(oxy))bis(5-chloro-2-methoxy-4,1-phenylene))bis(methylene))bis(azanediyl))bis(4-hydroxybutanoic acid)] | 7.70 to 10.40 | –
Cc1c(COc2cc(OCc3cncc(C#N)c3)c(CO)cc2Cl)cccc1-c1cccc(COc2cc(OCc3cncc(C#N)c3)c(CN[C@@H](CCO)C(=O)O)cc2Cl)c1C [Example 50360] | 7.70 to 10.40 | –
N#Cc1cncc(COc2cc(OCc3cccc(-c4cccc(COc5cc(OCc6cncc(C#N)c6)c(C(=O)NCC6(CO)CC6)cc5Cl)c4Cl)c3Cl)c(Cl)cc2C(=O)NCC2(CO)CC2)c1 [Example 80160] | 5.00 to 6.00 | –
